Read-outs that look alike come from different tables or passages of the source.
Key:
Format in all cases: cell-based
[1] = test system: cisplatin-resistant A549 (A549/DDP) lung cancer cells; experiment: MTT antiproliferative assay, A549/DDP
Experimental: (§1) The antiproliferative activity of 1,2,3-triazole tethered dihydroartemisinin-isatin hybrids 8a-c and 9a-k against A549, multidrug-resistant A549/DOX and A549/DDP lung cancer cell lines as well as cytotoxicity towards mouse embryonic fibroblast cells NIH/3T3 were assessed by 3-(4,5-dimethylthiazol-2-yl)-2,5-diphenyltetrazolium bromide (MTT) assay, and half maximal inhibitory concentration (IC50) values were listed in Table 2. A549, A549/DOX, and A549/DDP lung cancer cells (2 × 10^3) were plated in each well of a 96-well plate and were allowed to adhere and spread for 24 h. The 1,2,3-triazole tethered dihydroartemisinin-isatin hybrids 8a-c and 9a-k were added to a final concentration of 100 μM, and the cells were cultured for 24 h at 37°C. 3-(4,5-dimethyl-2-thiazolyl)-2,5-diphenyltetrazolium bromide (MTT) solution (10 µL) was added to each well, and the cultures were incubated for an additional 4 h. A further 100 µL of […] was added and incubation continued overnight. The absorbance at 540 nm was determined in each well with a 96-well plate reader. The growth of the treated cells was compared with that of untreated cells.

[2] = test system: mouse embryonic fibroblast cells NIH/3T3; experiment: MTT cytotoxicity assay, NIH/3T3; conditions: for SI (selectivity index): IC50(NIH/3T3)/IC50(A549); for IC50: cytotoxicity, NIH/3T3 cells, MTT (called CC50 in method)
Experimental: The antiproliferative activity of 1,2,3-triazole tethered dihydroartemisinin-isatin hybrids 8a-c and 9a-k against A549, multidrug-resistant A549/DOX and A549/DDP lung cancer cell lines as well as cytotoxicity towards mouse embryonic fibroblast cells NIH/3T3 were assessed by 3-(4,5-dimethylthiazol-2-yl)-2,5-diphenyltetrazolium bromide (MTT) assay, and half maximal inhibitory concentration (IC50) values were listed in Table 2.
The cytotoxicity (CC50) of the synthesized 1,2,3-triazole tethered dihydroartemisinin-isatin hybrids 8a-c and 9a-k were examined by the MTT assay in mouse embryonic fibroblast cells NIH/3T3. The compounds were dissolved in DMSO with concentrations from 1,024 to 1 μg/ml. The NIH/3T3 cells were maintained in culture medium at 37°C under 5% CO2 atmosphere. Cells were seeded in 96-well plates (1 × 10^4 cell per well) and allowed to recover for 24 h. After 72 h of exposure, cells were harvested and cell viability was assessed by MTT assay. The CC50 values were calculated by Bliss analy.

[3] = test system: A549 lung cancer cells; experiment: MTT antiproliferative assay, A549
Experimental: as §1

[4] = test system: doxorubicin-resistant A549 (A549/DOX) lung cancer cells; experiment: MTT antiproliferative assay, A549/DOX
Experimental: as §1

[5] = test system: A549, A549/DOX and A549/DDP lung cancer cell lines; experiment: MTT antiproliferative assay, ranges pooled over lung cancer cell lines
Experimental: as §1

[6] = range over the three lung cancer cell lines, read-out: IC50, range over A549, A549/DOX and A549/DDP

SMILES: CCON=C1C(=O)N(CCn2cc(COC3O[C@@H]4O[C@@]5(C)CC[C@H]6[C@H](C)CC[C@@H]([C@H]3C)[C@@]46OO5)nn2)c2ccccc21 (stereo partly drawn) [9d, 3-(ethoxyimino)-1-(2-(4-((((3R,5aS,6R,8aS,9R,12R,12aR)-3,6,9-trimethyldecahydro-12H-3,12-epoxy[1,2]dioxepino[4,3-i]isochromen-10-yl)oxy)methyl)-1H-1,2,3-triazol-1-yl)ethyl)indolin-2-one]
- IC50 ([1]; A549/DDP): 33.7 µM
- SI (selectivity index) [2]: >3.9
- IC50 ([2]; Mus musculus, NIH3T3): > 100 µM
- IC50 ([3]; Homo sapiens): 25.6 µM
- IC50 ([4]; Homo sapiens): 20.8 µM

SMILES: CON=C1C(=O)N(CCn2cc(COC3O[C@@H]4O[C@@]5(C)CC[C@H]6[C@H](C)CC[C@@H]([C@H]3C)[C@@]46OO5)nn2)c2ccc(OC)cc21 (stereo partly drawn) [9f, 5-methoxy-3-(methoxyimino)-1-(2-(4-((((3R,5aS,6R,8aS,9R,12R,12aR)-3,6,9-trimethyldecahydro-12H-3,12-epoxy[1,2]dioxepino[4,3-i]isochromen-10-yl)oxy)methyl)-1H-1,2,3-triazol-1-yl)ethyl)indolin-2-one]
- IC50 ([1]; A549/DDP): 51.8 µM
- SI (selectivity index) [2]: >1.5
- IC50 ([2]; Mus musculus, NIH3T3): > 100 µM
- IC50 ([3]; Homo sapiens): 65.4 µM
- IC50 ([4]; Homo sapiens): 79.5 µM

SMILES: CON=C1C(=O)N(CCn2cc(COC3O[C@@H]4O[C@@]5(C)CC[C@H]6[C@H](C)CC[C@@H]([C@H]3C)[C@@]46OO5)nn2)c2ccccc21 (stereo partly drawn) [9c, 3-(methoxyimino)-1-(2-(4-((((3R,5aS,6R,8aS,9R,12R,12aR)-3,6,9-trimethyldecahydro-12H-3,12-epoxy[1,2]dioxepino[4,3-i]isochromen-10-yl)oxy)methyl)-1H-1,2,3-triazol-1-yl)ethyl)indolin-2-one]
- IC50 ([1]; A549/DDP): 27.4 µM
- SI (selectivity index) [2]: >4.4
- IC50 ([2]; Mus musculus, NIH3T3): > 100 µM
- IC50 ([3]; Homo sapiens): 22.7 µM
- IC50 ([4]; Homo sapiens): 19.5 µM

SMILES: C[C@H]1[C@@H](O)O[C@@H]2O[C@@]3(C)CC[C@H]4[C@H](C)CC[C@@H]1[C@@]24OO3 [DHA, Dihydroartemisinin]
- IC50 ([1]; A549/DDP): 75.9 µM
- SI (selectivity index) [2]: >1.4
- IC50 ([2]; Mus musculus, NIH3T3): > 100 µM
- IC50 [5, 6]: 69.4 to 88 µM
- IC50 ([3]; Homo sapiens): 69.4 µM
- IC50 ([4]; Homo sapiens): 88 µM

SMILES: CON=C1C(=O)N(CCn2cc(COC3O[C@@H]4O[C@@]5(C)CC[C@H]6[C@H](C)CC[C@@H]([C@H]3C)[C@@]46OO5)nn2)c2ccc(F)cc21 (stereo partly drawn) [9j, 5-fluoro-3-(methoxyimino)-1-(2-(4-((((3R,5aS,6R,8aS,9R,12R,12aR)-3,6,9-trimethyldecahydro-12H-3,12-epoxy[1,2]dioxepino[4,3-i]isochromen-10-yl)oxy)methyl)-1H-1,2,3-triazol-1-yl)ethyl)indolin-2-one]
- IC50 ([1]; A549/DDP): 38.2 µM
- SI (selectivity index) [2]: >10.4
- IC50 ([2]; Mus musculus, NIH3T3): > 100 µM
- IC50 ([3]; Homo sapiens): 9.61 µM
- IC50 ([4]; Homo sapiens): 13 µM

SMILES: COc1ccc2c(c1)C(=NOCc1ccccc1)C(=O)N2CCn1cc(COC2O[C@@H]3O[C@@]4(C)CC[C@H]5[C@H](C)CC[C@@H]([C@H]2C)[C@@]35OO4)nn1 (stereo partly drawn) [9h, 3-((benzyloxy)imino)-5-methoxy-1-(2-(4-((((3R,5aS,6R,8aS,9R,12R,12aR)-3,6,9-trimethyldecahydro-12H-3,12-epoxy[1,2]dioxepino[4,3-i]isochromen-10-yl)oxy)methyl)-1H-1,2,3-triazol-1-yl)ethyl)indolin-2-one]
- IC50 ([1]; A549/DDP): 59.4 µM
- SI (selectivity index) [2]: >2.2
- IC50 ([2]; Mus musculus, NIH3T3): > 100 µM
- IC50 ([3]; Homo sapiens): 44.7 µM
- IC50 ([4]; Homo sapiens): 77.7 µM

SMILES: N.N.[Cl][Pt][Cl] [cisplatin, reference compound]
- IC50 [1]: 66.9 µM
- IC50 [2]: > 100 µM
- IC50 ([5]; range over A549 and A549/DOX, read-out: IC50, range over A549 and A549/DOX): 9.38 to 19.7 µM
- IC50 [5, 6]: 9.38 to 66.9 µM
- IC50 [3]: 9.38 µM
- IC50 [4]: 19.7 µM

SMILES: COc1ccc2c(c1)C(=O)C(=O)N2CCn1cc(COC2O[C@@H]3O[C@@]4(C)CC[C@H]5[C@H](C)CC[C@@H]([C@H]2C)[C@@]35OO4)nn1 (stereo partly drawn) [8b, 5-methoxy-1-(2-(4-((((3R,5aS,6R,8aS,9R,12R,12aR)-3,6,9-trimethyldecahydro-12H-3,12-epoxy[1,2]dioxepino[4,3-i]isochromen-10-yl)oxy)methyl)-1H-1,2,3-triazol-1-yl)ethyl)indoline-2,3-dione]
- IC50 ([1]; A549/DDP): 19.5 µM
- SI (selectivity index) [2]: >4.6
- IC50 ([2]; Mus musculus, NIH3T3): > 100 µM
- IC50 ([3]; Homo sapiens): 21.6 µM
- IC50 ([4]; Homo sapiens): 32 µM

SMILES: C[C@@H]1CC[C@H]2[C@@H](C)C(OCc3cn(CCN4C(=O)C(=NNC(N)=S)c5ccccc54)nn3)O[C@@H]3O[C@@]4(C)CC[C@@H]1[C@]32OO4 (stereo partly drawn) [9a, 2-(2-oxo-1-(2-(4-((((3R,5aS,6R,8aS,9R,12R,12aR)-3,6,9-trimethyldecahydro-12H-3,12-epoxy[1,2]dioxepino[4,3-i]isochromen-10-yl)oxy)methyl)-1H-1,2,3-triazol-1-yl)ethyl)indolin-3-ylidene)hydrazine-1-carbothioamide]
- IC50 ([1]; A549/DDP): 30.9 µM
- SI (selectivity index) [2]: >6.1
- IC50 ([2]; Mus musculus, NIH3T3): > 100 µM
- IC50 ([3]; Homo sapiens): 16.3 µM
- IC50 ([4]; Homo sapiens): 38.4 µM

SMILES: C[C@@H]1CC[C@H]2[C@@H](C)C(=O)O[C@@H]3O[C@@]4(C)CC[C@@H]1[C@]32OO4 [Artemisinin]
- IC50 ([1]; A549/DDP): > 100 µM
- IC50 ([2]; Mus musculus, NIH3T3): > 100 µM
- IC50 [5, 6]: > 100 µM
- IC50 ([3]; Homo sapiens): > 100 µM
- IC50 ([4]; Homo sapiens): > 100 µM

SMILES: C[C@@H]1CC[C@H]2[C@@H](C)C(OCc3cn(CCN4C(=O)C(=NOCc5ccccc5)c5ccccc54)nn3)O[C@@H]3O[C@@]4(C)CC[C@@H]1[C@]32OO4 (stereo partly drawn) [9e, 3-((benzyloxy)imino)-1-(2-(4-((((3R,5aS,6R,8aS,9R,12R,12aR)-3,6,9-trimethyldecahydro-12H-3,12-epoxy[1,2]dioxepino[4,3-i]isochromen-10-yl)oxy)methyl)-1H-1,2,3-triazol-1-yl)ethyl)indolin-2-one]
- IC50 ([1]; A549/DDP): 29.9 µM
- SI (selectivity index) [2]: >6.1
- IC50 ([2]; Mus musculus, NIH3T3): > 100 µM
- IC50 ([3]; Homo sapiens): 16.3 µM
- IC50 ([4]; Homo sapiens): 31.4 µM

SMILES: CCON=C1C(=O)N(CCn2cc(COC3O[C@@H]4O[C@@]5(C)CC[C@H]6[C@H](C)CC[C@@H]([C@H]3C)[C@@]46OO5)nn2)c2ccc(F)cc21 (stereo partly drawn) [9k, 3-(ethoxyimino)-5-fluoro-1-(2-(4-((((3R,5aS,6R,8aS,9R,12R,12aR)-3,6,9-trimethyldecahydro-12H-3,12-epoxy[1,2]dioxepino[4,3-i]isochromen-10-yl)oxy)methyl)-1H-1,2,3-triazol-1-yl)ethyl)indolin-2-one]
- IC50 ([1]; A549/DDP): 28.7 µM
- SI (selectivity index) [2]: >6.3
- IC50 ([2]; Mus musculus, NIH3T3): > 100 µM
- IC50 ([3]; Homo sapiens): 15.8 µM
- IC50 ([4]; Homo sapiens): 31.1 µM

SMILES: CCON=C1C(=O)N(CCn2cc(COC3O[C@@H]4O[C@@]5(C)CC[C@H]6[C@H](C)CC[C@@H]([C@H]3C)[C@@]46OO5)nn2)c2ccc(OC)cc21 (stereo partly drawn) [9g, 3-(ethoxyimino)-5-methoxy-1-(2-(4-((((3R,5aS,6R,8aS,9R,12R,12aR)-3,6,9-trimethyldecahydro-12H-3,12-epoxy[1,2]dioxepino[4,3-i]isochromen-10-yl)oxy)methyl)-1H-1,2,3-triazol-1-yl)ethyl)indolin-2-one]
- IC50 ([1]; A549/DDP): 61.7 µM
- SI (selectivity index) [2]: >1.3
- IC50 ([2]; Mus musculus, NIH3T3): > 100 µM
- IC50 ([3]; Homo sapiens): 73.8 µM
- IC50 ([4]; Homo sapiens): 45 µM

SMILES: C[C@@H]1CC[C@H]2[C@@H](C)C(OCc3cn(CCN4C(=O)C(=NO)c5ccccc54)nn3)O[C@@H]3O[C@@]4(C)CC[C@@H]1[C@]32OO4 (stereo partly drawn) [9b, 3-(hydroxyimino)-1-(2-(4-((((3R,5aS,6R,8aS,9R,12R,12aR)-3,6,9-trimethyldecahydro-12H-3,12-epoxy[1,2]dioxepino[4,3-i]isochromen-10-yl)oxy)methyl)-1H-1,2,3-triazol-1-yl)ethyl)indolin-2-one]
- IC50 ([1]; A549/DDP): 30.3 µM
- SI (selectivity index) [2]: >8.3
- IC50 ([2]; Mus musculus, NIH3T3): > 100 µM
- IC50 ([3]; Homo sapiens): 12 µM
- IC50 ([4]; Homo sapiens): 26.1 µM

— paper PMC8716824, “Design, Synthesis and Anti-Lung Cancer Evaluation of 1, 2, 3-Triazole Tethered Dihydroartemisinin-Isatin Hybrids” (Frontiers in Pharmacology, 2021)
